This is an account of results in patent US6310095A, “Inhibitors of protein isoprenyl transferases” (University of Pittsburgh, priority 1998, dated 2001).

Structures are written as SMILES. Counter-ions that a name gives are not always drawn.

The first assay concerns the target T1, protein farnesyltransferase (Rattus norvegicus, UniProt Q02293+Q04631).
T1 construct: Rat brain protein farnesyltransferase activity is measured; from tissue; host or cells: rat brain; purified according to Reiss et al., Cell 62:81-88 (1990), steps one through three
Put plainly: in vitro inhibition of protein farnesyltransferase (scintillation proximity assay, biotin-K Ras B fragment). As to conditions: at 1 × 10^-5 M. The class given is biochemical. Put shortly:
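Rat brain enzyme, purified through three steps, in a scintillation proximity assay kit with biotin-K Ras B fragment substrate at 0.1 mM final. Value is % inhibition of farnesylation.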
As a reminder, the inhibition is the relative decrease from the control value, in per cent. `CCN(Cc1ccc(C(=O)N[C@@H](CCSC)C(=O)O)c(-c2ccccc2)c1)Cc1cc([N+](=O)[O-])ccc1O` [Example 711] had an inhibition at 10 µM of 46%. Molecule `CSCC[C@H](NC(=O)c1ccc(CNc2ccccc2N(C)C)cc1-c1ccccc1)C(=O)O` [Example 672] displayed an inhibition at 10 µM of 48%. On the same count and under the same terms, under `CSCC[C@H](NC(=O)c1ccc(CNc2ccc(C3CCCCC3)cc2)cc1-c1ccccc1)C(=O)O` [Example 699] stands 74%. As to `COc1ccc(NCc2ccc(C(=O)N[C@@H](CCSC)C(=O)O)c(-c3ccccc3)c2)cc1` [Example 690], 10 µM produced 61% inhibition. `CSCC[C@H](NC(=O)c1ccc(CNCCN2CCOCC2)cc1-c1ccccc1)C(=O)O` [Example 365] had an inhibition at 10 µM of 97%. `CSCC[C@H](NC(=O)c1ccc(CNCCN2CCCCC2)cc1-c1ccccc1)C(=O)O` [Example 366] showed an inhibition at 10 µM of 83%.

In turn, `CSCC[C@H](NC(=O)c1ccc(CNc2ccc(C(=O)c3ccccc3)cc2)cc1-c1ccccc1)C(=O)O` [Example 702] returned an inhibition at 10 µM of 79%.

The same assay, now with this note: at 1 × 10^-6 M.
As to `CSCC[C@H](NC(=O)c1ccc(COCc2ccccc2)cc1-c1ccccc1)C(=O)O` [Example 575], the “% inhibition of farnesyltransferase” value is recorded as 70%. Regarding `CCOC[C@H](CC1CCCCC1)OCc1ccc(C(=O)N[C@@H](CCSC)C(=O)O)c(-c2ccccc2C)c1` [Example 525], the “% inhibition of farnesyltransferase” value stood at 99%.

For `CSCC[C@H](NC(=O)c1ccc(CCc2cnc(Oc3ccccc3)cn2)cc1-c1ccccc1C)C(=O)O` [Example 813], the “% inhibition of farnesyltransferase” value came to 95%. On the same count and under the same terms, the figure for `CSCC[C@H](NC(=O)c1ccc(C=Cc2ccccc2Oc2ccccc2)cc1-c1ccccc1C)C(=O)[O-].[Li+]` [Example 453] is 90%. As for `CSCC[C@H](NC(=O)c1ccc(COCc2ccc3ccccc3c2)cc1-c1ccccc1C)C(=O)[O-].[Li+]` [Example 583], the “% inhibition of farnesyltransferase” value is 98%. Turning to `CSCC[C@H](NC(=O)c1ccc(CN(C2CC2)C(C)(C)Cc2ccccc2)cc1-c1ccccc1C)C(=O)O` [Example 315], the “% inhibition of farnesyltransferase” value was found to be 93%. `CSCC[C@H](NC(=O)c1ccc(COCC2CCCO2)cc1-c1ccccc1)C(=O)O` (some centres unmarked) [Example 288]: the “% inhibition of farnesyltransferase” value is 22%. Take `Cc1ccccc1-c1cc(CN(C2CC2)C(C)(C)Cc2ccccc2)ccc1C(=O)N[C@@H](CCS(C)(=O)=O)C(=O)O` [Example 319]: the “% inhibition of farnesyltransferase” value is recorded as 98%. On the same count and under the same terms, the figure for `CSCC[C@H](NC(=O)c1ccc(COC2(Cc3ccccc3)CCN(C(=O)OC(C)(C)C)CC2)cc1-c1ccccc1C)C(=O)[O-].[Li+]` [Example 809] is 78%; for `CSCC[C@H](NC(=O)c1ccc(-c2ccccc2-c2ccccc2)cc1-c1ccccc1C)C(=O)[O-].[Li+]` [Example 786] it is 34%; for `CSCC[C@H](NC(=O)c1cc(Cc2ccccc2)c(COCCCc2ccccc2)cc1-c1ccccc1C)C(=O)O` [Example 925] it is 87%.

On to `CSCC[C@H](NC(=O)c1ccc(COCC2CCOC2)cc1-c1ccccc1)C(=O)O` (some centres unmarked) [Example 287], for which the “% inhibition of farnesyltransferase” value is 24%. With `CSCC[C@H](NC(=O)c1ccc(COCC(CC2CCCCC2)CC2CCCCC2)cc1-c1ccccc1C)C(=O)O` [Example 889], the “% inhibition of farnesyltransferase” value turned out to be 95%.

The assay is the same for the next values; noted with them: at 1 × 10^-6 M; read-out: % inhibition of farnesyltransferase.
As to `CSCCC(NC(=O)c1ccc(NC(=O)C2CCCNC2)cc1-c1ccccc1)C(=O)O` (centres unmarked) [Example 231, [4-(3-piperidinecarboxyamino)-2-phenylbenzoyl]methionine hydrochloride], the inhibition at 1 µM is 50%.

`CSCC[C@H](NC(=O)c1ccc(NC[C@@H]2CSCN2)cc1-c1ccccc1)C(=O)O` [Example 166, [4-((R)-thiazolidin-4-ylmethyl)amino-2-phenylbenzoyl]methionine hydrochloride]: the inhibition at 1 µM worked out at 97%.

Regarding `CSCC[C@H](NC(=O)c1ccc(CN(CC(c2ccccc2)c2ccccc2)c2ccccc2)cc1-c1ccccc1C)C(=O)O` [Example 509], the inhibition at 1 µM turned out to be 77%. On to `CSCC[C@H](NC(=O)c1ccc(CN(Cc2ccccc2)Cc2cccc(Oc3ccccc3)c2)cc1-c1ccccc1C)C(=O)O` [Example 514, N-[4-N-(3-phenoxybenzyl)-N-benzylaminomethyl-2-(2-methylphenyl)benzoyl]methionine lithium salt], for which the inhibition at 1 µM was determined as 94%. Still for that read-out and setting: under `CSCC[C@H](NC(=O)c1ccc(NC(=O)OCc2cncs2)cc1-c1ccccc1C)C(=O)O` [Example 902, N-[4-N-(thiazol-5-ylmethoxycarbonyl)amino-2-(2-methylphenylbenzoyl]methioninelithium salt] stands 85%; under `CCSC[C@H](CC1CCCCC1)NCc1ccc(C(=O)N[C@@H](CCSC)C(=O)OCOC(=O)C(C)(C)C)c(-c2ccccc2C)c1` [Example 764, hydrochloride salt], 88%; under `CSCC[C@H](NC(=O)c1ccc(CN(Cc2ccoc2)C(C)C)cc1-c1ccccc1C)C(=O)O` [Example 832, N-[4-N-(furan-3-ylmethyl)-N-isopropylainomethyl-2-(2-methylphenyl)benzoyl]methionine lithium salt], 80%.

Still in this assay, the particulars now being: at 1 × 10^-7 M.
With `CSCC[C@H](NC(=O)c1ccc(COCc2cccc3ccccc23)cc1-c1ccccc1C)C(=O)[O-].[Li+]` [Example 584], the “% inhibition of farnesyltransferase” value is reported as 96%.

As to `CSCC[C@H](NC(=O)c1ccc(COCc2ccc(-c3ccccc3F)o2)cc1-c1ccccc1C)C(=O)[O-].[Li+]` [Example 437], the “% inhibition of farnesyltransferase” value turned out to be 89%.

Consider `COc1ccccc1COCc1ccc(C(=O)N[C@@H](CCSC)C(=O)[O-])c(-c2ccccc2C)c1.[Li+]` [Example 931], for which the “% inhibition of farnesyltransferase” value amounted to 98%. For the molecule `CSCC[C@H](NC(=O)c1ccc(CCc2ccc(Oc3ccccc3Cl)cc2)cc1-c1ccccc1C)C(=O)O` [Example 855], the “% inhibition of farnesyltransferase” value was 92%. Take `COc1ccc(COCc2ccc(C(=O)N[C@@H](CCSC)C(=O)[O-])c(-c3ccccc3C)c2)cc1.[Li+]` [Example 935]: the “% inhibition of farnesyltransferase” value amounted to 72%.

As to `CSCC[C@H](NC(=O)c1ccc(COCc2ccc(-c3ccc(Cl)cc3)o2)cc1-c1ccccc1C)C(=O)O` [Example 443], the “% inhibition of farnesyltransferase” value was found to be 97%. `CSCC[C@H](NC(=O)c1ccc(COCc2ccc(-c3ccc(C=O)cc3)o2)cc1-c1ccccc1C)C(=O)[O-].[Li+]` [Example 448]: the “% inhibition of farnesyltransferase” value turned out to be 92%. On the same count and under the same terms, the figure for `CSCC[C@H](NC(=O)c1ccc(COCc2ccc(C(C)C)cc2)cc1-c1ccccc1C)C(=O)[O-].[Li+]` [Example 940] is 92%. For the molecule `CSCC[C@H](NC(=O)c1ccc(COCc2cc3ccccc3o2)cc1-c1ccccc1C)C(=O)[O-].[Li+]` [Example 533], the “% inhibition of farnesyltransferase” value came out at 91%. On to `CSCC[C@H](NC(=O)c1ccc(COC(Cc2ccccc2)c2ccco2)cc1-c1ccccc1C)C(=O)[O-].[Li+]` (some centres unmarked) [Example 534], for which the “% inhibition of farnesyltransferase” value is listed as 84%.

The same assay, now with this note: at 1 × 10^-7 M; read-out: % inhibition of farnesyltransferase.
As for `CSCC[C@H](NC(=O)c1ccc(CNc2ccc(Oc3ccccc3)cc2)cc1-c1ccccc1C)C(=O)O` [Example 864, N-[4-N-(4-phenoxyphenyl)aminomethyl-2-(2-methylphenyl)benzoyl]methionine], the inhibition at 0.1 µM was 84%. For the molecule `CSCC[C@H](NC(=O)c1ccc(CN[C@H](CCCC(C)C)CC2CCCCC2)cc1-c1ccccc1C)C(=O)O` [Example 527, N-[4-N-(1-Cyclohexyl-6-methylheptan-2-yl)aminomethyl-2-(2-methylphenyl)benzoyl]methionine lithium salt], the inhibition at 0.1 µM was 97%.

Staying with this assay, now noted: at 1 × 10^-8 M.
On to `CSCC[C@H](NC(=O)c1ccc(COCc2ccccc2Cl)cc1-c1ccccc1C)C(=O)[O-].[Li+]` [Example 930], for which the “% inhibition of farnesyltransferase” value is listed as 66%. For the molecule `CCCCC(OCc1ccc(C(=O)N[C@@H](CCSC)C(=O)O)c(-c2ccccc2C)c1)c1cncs1` (some centres unmarked) [Example 985], the “% inhibition of farnesyltransferase” value is reported as 89%.

The same assay, now with this note: at 1 × 10^-8 M; read-out: % inhibition of farnesyltransferase.
As for `CSCC[C@H](NC(=O)c1ccc(CN(CCC2CCCCC2)C(=O)OC(C)(C)C)cc1-c1ccccc1C)C(=O)O` [Example 763, N-[4-N-t-Butyloxycarbonyl-N-2-cyclohexylethylaminomethyl-2-(2-methylphenyl)benzoyl]methionine lithium salt], the inhibition at 0.01 µM was found to be 92%. In the case of `CSCC[C@H](NC(=O)c1ccc(CN(c2ccccc2)S(=O)(=O)c2ccc(C(F)(F)F)cc2)cc1-c1ccccc1C)C(=O)O` [Example 780, N-[4-N-(N-phenyl-N-(4-trifluoromethylbenzenesulfonyl)aminomethyl)-2-(2-methylphenal)-benzoyl]methionine lithium salt], the inhibition at 0.01 µM was determined as 71%. For `CC[C@H](CC1CCCCC1)NCc1ccc(C(=O)N[C@@H](CCSC)C(=O)O)c(-c2ccccc2C)c1` [Example 614, N-[4-(4-cyclohexylbutan-3-ylaminomethyl)-2-(2-methylphenyl)benzoyl]methionine Lithium Salt], the inhibition at 0.01 µM stood at 92%. For the molecule `CSCC[C@H](NC(=O)c1ccc(CN(Cc2ccccc2)c2ccc([N+](=O)[O-])cc2)cc1-c1ccccc1C)C(=O)O` [Example 843, N-[4-(N-benzyl-N-(4-nitrophenyl)aninomethyl)-2-(2-methylphenyl)benzoyl]methionine lithium salt], the inhibition at 0.01 µM worked out at 96%. Same read-out and setting: the figure for `CSCC[C@H](NC(=O)c1ccc(CN(Cc2cncs2)C2CCSCC2)cc1-c1ccccc1C)C(=O)O` [Example 881] is 69%.

The assay is the same for the next values; noted with them: read-out: % inhibition of farnesyltransferase.
In the case of `CCOC(=O)N1CCC(NCc2ccc(C(=O)N[C@@H](CCSC)C(=O)O)c(-c3ccccc3C)c2)CC1` [Example 806, N-[4-(1-ethoxycarbonylpiperidin-4-ylaminomethyl)-2-(2-methylphenyl)benzoyl]methionine lithium salt], the inhibition at 1 µM came to 72%.
